# “Also recorded” adds a separate entry of the source.
# Assays:
# [1] = cited from earlier work
# [2] = test system: early AD patients and early PD patients; conditions: cited from earlier work
# [3] = test system: APP/PS1 transgenic (tg) mouse model of AD; conditions: cited from earlier work
# aSYN = conditions: neuroblastoma cells; cited from earlier work
# APP/PS1 transgenic mice = experiment: 2-day radial arm water maze (RAWM), spatial memory; type: in vivo
# Method: Animals: Heterozygous double transgenic mice expressing both human APP (K670N:M671L) and human PS1 (M146L) (line 6.2) and their wild-type non-transgenic littermates, both males and females, were used for these experiments. They were obtained by a breeding colony maintained at the animal facility of Columbia University. They were genotyped through PCR on tail samples. Animals were injected i.p. from the age of […] for 1 month prior to starting behavioral assessment which lasted for 2 weeks during which treatment continued. Behavioral assessment examined spatial and associative memory. Finally, mice were sacrificed for electrophysiological assessment of synaptic function.
# Mice were coded to blind investigators with respect to genotype and treatment. Results were expressed with Standard Error of the Mean (SEM). Level of significance was set for p<0.05. Results were analyzed by ANOVA analysis with post-hoc correction with the combination or genotype as main effect. Experiments were designed in a balanced fashion, and mice were trained and tested at each of the different conditions in 3 or 4 separate experiments.
# Mice were i.p. injected with the drug from the age of 8 weeks prior to plaque appearance until behavioral assessment that started at 12 weeks of age and lasted for 2 weeks.
# Spatial memory was studied with the 2-day radial arm water maze (RAWM) test. The task is a hybrid of the Morris Water Maze (MWM) and the radial arm land maze. The motivation for the animals is immersion in water. The mouse needs to swim in 6 alleys (arms) radiating from a central area until it finds a hidden (submerged) platform at the end of one of the arms, based on visual cues placed in the room. In the old RAWM version of the task, the goal arm varies from day to day, requiring 21 days of training in wild-type mice to reach the learning criterion. In the new version of the task, the goal arm is kept constant for all trials, with a different start arm on successive trials, such that the learning criterion will be reached in 2 days. The first day of the protocol was a training day. Mice were trained to identify the platform location by alternating between a visible and a hidden platform in a goal arm. The final 3 trials on day 1 and all 15 trials on day 2 used a hidden escape platform to force mice to use spatial cues to identify the location of the goal arm. To avoid learning limitations imposed by exhausting practice and to avoid fatigue that may result from consecutive trials, spaced practice training was established by running the mice in cohorts of 4 and alternating different cohorts through the 15 training trials over 3 hours testing periods each day. On day 1, a visible platform was laced in a goal location. Mouse 1 of cohort 1 was gently placed in the pool near the perimeter of the wall of the first start arm (specified on a score sheet) and facing the center of the pool. The number of incorrect arm entries (entries in arms with no platform) was counted. If the animal enters the incorrect arm it was gently pulled back to the start arm. Each trial lasted up to 1 min. Failure to select an arm after 15 sec was counted as an error and the mouse was returned to the start arm. After 1 min, if the platform had not been located, the mouse was guided gently through the water by placing a hand behind it to direct it towards the platform. The mouse rested on the platform for 15 sec. After completing the trial, the mouse was removed from the pool, gently towel dried and placed back into its cage under a heat lamp. The goal platform location was different for each mouse. […] After each mouse from cohort 1 completed six alternating trials between visible and hidden platforms, the mice were left to rest under a heating source, and mice from the second cohort were tested in the same way.
# APP and its fragments [4] = experiment: APP in vivo in APP/PS1 transgenic AD mice (hippocampus)
# Text: FIG. 2, APP in vivo. […] GAPDH and Synaptophysin were loading controls. FIG. 2 also includes a collection of graphs showing relative density of APP plotted against control and time after buntanetap treatment; relative density of CTFβ plotted against control and time after buntanetap treatment; relative density of CTFα plotted against control and time after buntanetap treatment; A042 levels in brain tissue plotted against control and time after buntanetap treatment; and A040 levels in brain tissue plotted against control and time after buntanetap treatment. Finally, FIG. 2 also includes a Western blot showing levels of APP, NSB, CTFβ, and CTFα after buntanetap treatment over time (minutes).
# tau = conditions: unpublished observation, Peter Davies Laboratory; cited from earlier work
# Huntingtin Protein = conditions: through Translational Suppression; cited from earlier work
# APP and its fragments [5] = conditions: APP/PS1 transgenic mice; cited from earlier work
# [6] = test system: Ts65dn mouse model of Down syndrome (DS); conditions: cited from earlier work
# [7] = test system: APP, Tau, and aSYN in the cerebrospinal fluid (CSF) of MCI subjects; experiment: CSF biomarkers in MCI subjects before and after 10 days of buntanetap (proof of mechanism); conditions: mildly cognitive impaired patients, 10 days of administration (FIG. 3)
structure (smiles),measurement,setting,value
"CN1CC[C@]2(C)c3cc(OC(=O)Nc4ccccc4)ccc3N(C)C12 (stereo partly drawn) [Buntanetap, (3aR)-1,3a,8-trimethyl-1,2,3,3a,8,8a-hexahydropyrrolo[2,3-b]indol-5-yl phenylcarbamate]",half-life in CSF,[1]; MCI subjects,> 12 h
same,tolerability,[1]; doses up to 4×60 mg daily X 10 days,well tolerated
same,concentration in brain relative to plasma,[1]; in vivo,about 8 times
same,terminal half-life,"[1]; plasma, all doses, biphasic clearance",4.3 to 4.7 h
same,levels of neurotoxic proteins and inflammatory factors (biomarker data),[2]; AD and PD cohorts,trend in lowering
same,axonal and synaptic function,[2]; AD and PD patients,improved
same,blood brain barrier crossing,[2]; AD and PD patients,crossed the blood brain barrier
same,inflammatory markers,[2]; AD and PD patients,reduced
same,neurotoxic protein biomarkers,[2]; AD and PD patients,reduced
same,ADAS-Cog11 and WAIS coding (psychometric tests),"[2]; AD patients, 80 mg QD",statistically significant improvements
same,cognition as measured by ADAS-Cog11 and WAIS coding speed,"[2]; AD patients, statistical significance versus baseline at 80 mg dose but not placebo",improved
same,MDS-UPDRS and WAIS coding (psychometric tests),"[2]; PD patients, 5-80 mg QD",statistically significant improvements
same,"motor function as measured by MDS-UPDRS (Part II, III, IV and total)","[2]; PD patients, all doses, maximum improvement for 10 & 20 mg",improved
same,WAIS speed and accuracy,"[2]; PD patients, significant versus placebo in 5 mg, 20 mg and 80 mg arms",improved
same,safety and tolerability,[2]; doses up to 80 mg in both AD and PD patients,well tolerated
same,Cmax and AUC,"[2]; plasma, without evidence for a plateau up to 80 mg QD",increased with dose
same,memory and learning,[3]; APP/PS1 transgenic (tg) mouse model of AD,Restored
same,impaired synaptic transmission,[3]; hippocampus of APP/PS1 tg mice,Normalized
same,aSYN in vitro,aSYN,lowers
same,% Improvement (RAWM errors),"APP/PS1 transgenic mice; APP/PS1, Buntanetap 1 mg/kg",29.4%
same,Meran Number of Errors (RAWM),"APP/PS1 transgenic mice; APP/PS1, Buntanetap 1 mg/kg",2.8
same,Meran Number of Errors (RAWM),"APP/PS1 transgenic mice; APP/PS1, Buntanetap 10 mg/kg",1.6
same,% Improvement (RAWM errors),"APP/PS1 transgenic mice; APP/PS1, Buntanetap 10 mg/kg, 100% = difference of 1.7 errors",100%
same,impairment of short-term spatial memory measured through the 2-day radial arm water maze (RAWM),"APP/PS1 transgenic mice; APP/PS1 mice, Buntanetap 1 mg/Kg and/or dulaglutide 0.1 mg/Kg",did not ameliorate
same,time after the last dose for which APP and all related peptides in hippocampus were reduced,APP and its fragments [4]; APP/PS1 mice,at least 9 hours
same,APP and its fragments in hippocampus,APP and its fragments [4]; APP/PS1 transgenic AD mice,reduced
same,tau in vitro,tau,lowers
same,levels of Huntingtin Protein,Huntingtin Protein,reduced
same,levels of APP and all its fragments,APP and its fragments [5],lowers
same,memory and learning,[6],Restored
same,"APP/Abeta, tau/phospho-tau and alpha-synuclein in the spinal fluid",[7],reduction; also recorded: normalized
